Columns and labels:
[1] = Concentration required to inhibit 50% of human carcinoma CH1 cell lines; assay type: functional, cell-based
SK-OV-3 = assay: Concentration required to inhibit 50% of human carcinoma SKOV3 cell lines; assay type: functional, cell-based
[2] = target: Telomerase reverse transcriptase (Homo sapiens, UniProt O14746); assay: Concentration required to inhibit 50% of telomerase activity
A2780 = assay: Concentration required to inhibit 50% of human carcinoma A2780 cell lines; assay type: functional, cell-based

Telomerase reverse transcriptase, sequence (O14746 whole entry): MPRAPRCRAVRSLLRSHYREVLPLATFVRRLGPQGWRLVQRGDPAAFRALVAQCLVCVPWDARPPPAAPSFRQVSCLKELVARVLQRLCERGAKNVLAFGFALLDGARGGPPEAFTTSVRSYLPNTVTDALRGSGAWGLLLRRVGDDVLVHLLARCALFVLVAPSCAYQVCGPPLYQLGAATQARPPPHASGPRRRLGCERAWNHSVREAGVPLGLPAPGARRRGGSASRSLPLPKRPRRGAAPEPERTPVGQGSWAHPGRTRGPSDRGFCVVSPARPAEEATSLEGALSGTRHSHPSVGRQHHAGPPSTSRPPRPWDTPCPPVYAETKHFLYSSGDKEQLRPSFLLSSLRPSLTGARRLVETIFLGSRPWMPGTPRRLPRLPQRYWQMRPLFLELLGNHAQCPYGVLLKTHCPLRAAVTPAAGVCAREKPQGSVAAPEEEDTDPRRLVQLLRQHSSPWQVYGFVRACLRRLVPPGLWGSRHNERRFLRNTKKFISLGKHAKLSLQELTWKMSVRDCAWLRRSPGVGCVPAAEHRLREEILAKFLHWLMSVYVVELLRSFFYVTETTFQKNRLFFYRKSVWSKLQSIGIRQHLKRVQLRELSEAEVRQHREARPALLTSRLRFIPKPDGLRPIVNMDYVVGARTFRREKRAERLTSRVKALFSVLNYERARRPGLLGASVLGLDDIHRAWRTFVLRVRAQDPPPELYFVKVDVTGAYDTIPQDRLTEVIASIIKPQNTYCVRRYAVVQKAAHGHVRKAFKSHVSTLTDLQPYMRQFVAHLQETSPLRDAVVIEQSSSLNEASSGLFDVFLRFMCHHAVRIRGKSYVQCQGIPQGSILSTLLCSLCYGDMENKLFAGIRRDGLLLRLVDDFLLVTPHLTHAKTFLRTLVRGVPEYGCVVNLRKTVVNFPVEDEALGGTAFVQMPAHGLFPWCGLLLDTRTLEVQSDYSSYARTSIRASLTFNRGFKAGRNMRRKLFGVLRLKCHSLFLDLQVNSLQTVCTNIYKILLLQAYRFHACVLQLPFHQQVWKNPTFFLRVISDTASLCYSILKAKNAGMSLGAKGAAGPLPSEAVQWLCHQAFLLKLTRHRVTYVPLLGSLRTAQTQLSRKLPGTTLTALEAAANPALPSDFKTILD

Structure (SMILES)	IC50 [1]	IC50 (SK-OV-3)	EC50 [2]	IC50 (A2780)
O=C(CCN1CCCCC1CO)Nc1ccc2c(O)c3cc(NC(=O)CCN4CCCCC4CO)ccc3nc2c1 (centres undefined)	25 µM	25 µM	0.2 µM	11.2 µM
CC1CCCCN1CCC(=O)Nc1ccc2c(O)c3ccc(NC(=O)CCN4CCCCC4C)cc3nc2c1 (centres undefined)	11 µM	10.5 µM	2.3 µM	13 µM
CC1CCN(CCC(=O)Nc2ccc3c(O)c4ccc(NC(=O)CCN5CCC(C)CC5)cc4nc3c2)CC1	3 µM	5.6 µM	1.7 µM	3 µM
CCC1CCCCN1CCC(=O)Nc1ccc2c(O)c3ccc(NC(=O)CCN4CCCCC4CC)cc3nc2c1 (centres undefined)	11.8 µM	12 µM	2.3 µM	13 µM
O=C(CCN1CCCC1)Nc1ccc2c(O)c3ccc(NC(=O)CCN4CCCC4)cc3nc2c1	> 25 µM	> 25 µM	8.1 µM	> 25 µM
O=C(CCN1CCCCC1)Nc1ccc2c(O)c3cc(NC(=O)CCN4CCCCC4)ccc3nc2c1	25 µM	25 µM	0.4 µM	5.6 µM
c1cc2cc3ccc(N4CCCC4)cc3nc2cc1N1CCCC1	8.2 µM	2.6 µM	5.2 µM	27 µM
O=C(CCN1CCC(O)CC1)Nc1ccc2c(O)c3cc(NC(=O)CCN4CCC(O)CC4)ccc3nc2c1	25 µM	25 µM	0.2 µM	3.5 µM
O=C(CCN1CCCCC1)Nc1ccc2nc3ccc(NC(=O)CCN4CCCCC4)cc3c(O)c2c1	> 25 µM	> 25 µM	1.9 µM	> 25 µM
CN(C)CCC(=O)Nc1ccc2c(O)c3ccc(NC(=O)CCN(C)C)cc3nc2c1	> 25 µM	> 25 µM	4.3 µM	> 25 µM
CC1CCCCN1CCC(=O)Nc1ccc2nc3ccc(NC(=O)CCN4CCCCC4C)cc3c(O)c2c1 (centres undefined)	> 25 µM	> 25 µM	2.3 µM	> 25 µM
CCN(CC)CCC(=O)Nc1ccc2c(O)c3cc(NC(=O)CCN(CC)CC)ccc3nc2c1	25 µM	25 µM	0.7 µM	16 µM
CN(C)CCC(=O)Nc1ccc2nc3ccc(NC(=O)CCN(C)C)cc3c(O)c2c1	> 25 µM	> 25 µM	0.6 µM	> 25 µM
CCN(CC)c1ccc2cc3ccc(N(CC)CC)cc3nc2c1	2.5 µM	2.3 µM	5.8 µM	0.6 µM
O=C(CCN1CCCC1)Nc1ccc2nc3ccc(NC(=O)CCN4CCCC4)cc3c(O)c2c1	> 25 µM	> 25 µM	5.8 µM	> 25 µM
c1cc2cc3ccc(N4CCCCC4)cc3nc2cc1N1CCCCC1	2.3 µM	0.5 µM	2.8 µM	1.7 µM
CCN1CCN(CCC(=O)Nc2ccc3c(O)c4ccc(NC(=O)CCN5CCN(CC)CC5)cc4nc3c2)CC1	11 µM	10.5 µM	1.9 µM	11.8 µM
O=C(CCN1CCCCC1)Nc1ccc2c(O)c3ccc(NC(=O)CCN4CCCCC4)cc3nc2c1	13 µM	21 µM	5.9 µM	19 µM
O=C(CCN1CCOCC1)Nc1ccc2c(O)c3ccc(NC(=O)CCN4CCOCC4)cc3nc2c1	> 25 µM	> 25 µM	4.9 µM	> 25 µM
CC1CCN(CCC(=O)Nc2ccc3c(O)c4cc(NC(=O)CCN5CCC(C)CC5)ccc4nc3c2)CC1	25 µM	25 µM	0.2 µM	> 25 µM
CCN(CC)CCC(=O)Nc1ccc2c(O)c3ccc(NC(=O)CCN(CC)CC)cc3nc2c1	> 25 µM	> 25 µM	5.7 µM	> 25 µM
O=C(CCN1CCC(O)CC1)Nc1ccc2nc3ccc(NC(=O)CCN4CCC(O)CC4)cc3c(O)c2c1	> 25 µM	> 25 µM	2.3 µM	> 25 µM
O=C(CCN1CCC(O)CC1)Nc1ccc2c(O)c3ccc(NC(=O)CCN4CCC(O)CC4)cc3nc2c1	> 25 µM	> 25 µM	1.7 µM	> 25 µM
CN1CCN(CCC(=O)Nc2ccc3nc4ccc(NC(=O)CCN5CCN(C)CC5)cc4c(O)c3c2)CC1	> 25 µM	> 25 µM	1.9 µM	> 25 µM
CC[n+]1c(-c2ccccc2)c2cc(N)ccc2c2ccc(N)cc21 [HOMIDIUM BROMIDE]	0.4 µM	4.5 µM	–	0.1 µM

From ChEMBL document CHEMBL1137062, “Evaluation of by disubstituted acridone derivatives as telomerase inhibitors: the importance of G-quadruplex binding” (Bioorg Med Chem Lett, 2004)
